Source: US6518243B1, “Desleucyl glycopeptide antibiotics and methods of making same” (Trustees of Princeton University, priority 1999, dated 2003)

How the values were obtained:
Assay in all cases: Zone of inhibition screen, 96 well agar array format
Type in all cases: cell-based
Set-up in all cases: scale not given here
Conditions in all cases: zone of inhibition relative to 1 mg/ml p-chlorobiphenylvancomycin
E. faecalis (CL 4877) = test system: E. faecalis (CL 4877)
Summary of the method: (§1)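 Read-out is antibacterial activity on agar laid out as a 96-well array; every compound went through all strains of the panel.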

[1] = test system: S. epidermidis (ATCC 12228)
Summary of the method: as §1

S. aureus (ATCC 29213) = test system: S. aureus (ATCC 29213)
Summary of the method: as §1

Compound | zone score, E. faecalis CL 4877 (E. faecalis (CL 4877)) | zone score, S. epidermidis ATCC 12228 [1] | zone score, S. aureus ATCC 29213 (S. aureus (ATCC 29213))
CC1OC(OC2C(Oc3c4cc5cc3Oc3ccc(cc3Cl)C(O)C3NC(=O)C(NC(=O)C5NC(=O)C(CC(N)=O)NC(=O)C(NC(=O)CNC(=O)CNC(=O)CCNC(=O)OCc5ccccc5)C(O)c5ccc(c(Cl)c5)O4)c4ccc(O)c(c4)-c4c(O)cc(O)cc4C(C(=O)O)NC3=O)OC(CO)C(O)C2O)CC(C)(NCc2ccc(-c3ccc(Cl)cc3)cc2)C1O (stereo not drawn) [Compound 210] | 2 | 2 | 2
CC1OC(OC2C(Oc3c4cc5cc3Oc3ccc(cc3Cl)C(O)C3NC(=O)C(NC(=O)C5NC(=O)C(CC(N)=O)NC(=O)C(NC(=O)CNC(=O)C(CCC(N)=O)NC(=O)OCc5ccccc5)C(O)c5ccc(c(Cl)c5)O4)c4ccc(O)c(c4)-c4c(O)cc(O)cc4C(C(=O)O)NC3=O)OC(CO)C(O)C2O)CC(C)(NCc2ccc(-c3ccc(Cl)cc3)cc2)C1O (stereo not drawn) [Compound 211] | 2 | 2 | 2
CC1OC(OC2C(Oc3c4cc5cc3Oc3ccc(cc3Cl)C(O)C3NC(=O)C(NC(=O)C5NC(=O)C(CC(N)=O)NC(=O)C(NC(=O)C(CCC(N)=O)NC(=O)CNC(=O)OCc5ccccc5)C(O)c5ccc(c(Cl)c5)O4)c4ccc(O)c(c4)-c4c(O)cc(O)cc4C(C(=O)O)NC3=O)OC(CO)C(O)C2O)CC(C)(NCc2ccc(-c3ccc(Cl)cc3)cc2)C1O (stereo not drawn) [Compound 212] | 2 | 2 | 2
CC(NC(=O)CNC(=O)CNC(=O)OCc1ccccc1)C(=O)NC1C(=O)NC(CC(N)=O)C(=O)NC2C(=O)NC3C(=O)NC(C(=O)NC(C(=O)O)c4cc(O)cc(O)c4-c4cc3ccc4O)C(O)c3ccc(c(Cl)c3)Oc3cc2cc(c3OC2OC(CO)C(O)C(O)C2OC2CC(C)(NCc3ccc(-c4ccc(Cl)cc4)cc3)C(O)C(C)O2)Oc2ccc(cc2Cl)C1O (stereo not drawn) [Compound 213] | 2 | 2 | 2
CC1OC(OC2C(Oc3c4cc5cc3Oc3ccc(cc3Cl)C(O)C3NC(=O)C(NC(=O)C5NC(=O)C(CC(N)=O)NC(=O)C(NC(=O)C5CSC(=O)N5)C(O)c5ccc(c(Cl)c5)O4)c4ccc(O)c(c4)-c4c(O)cc(O)cc4C(C(=O)O)NC3=O)OC(CO)C(O)C2O)CC(C)(NCc2ccc(-c3ccc(Cl)cc3)cc2)C1O (stereo not drawn) [Compound 224] | 2 | 2 | 2
CC1OC(OC2C(Oc3c4cc5cc3Oc3ccc(cc3Cl)C(O)C3NC(=O)C(NC(=O)C5NC(=O)C(CC(N)=O)NC(=O)C(NC(=O)c5cccn5C)C(O)c5ccc(c(Cl)c5)O4)c4ccc(O)c(c4)-c4c(O)cc(O)cc4C(C(=O)O)NC3=O)OC(CO)C(O)C2O)CC(C)(NCc2ccc(-c3ccc(Cl)cc3)cc2)C1O (stereo not drawn) [Compound 229] | 2 | 2 | 2
CC1OC(OC2C(Oc3c4cc5cc3Oc3ccc(cc3Cl)C(O)C3NC(=O)C(NC(=O)C5NC(=O)C(CC(N)=O)NC(=O)C(NC(=O)Cc5ccc(Cl)cc5Cl)C(O)c5ccc(c(Cl)c5)O4)c4ccc(O)c(c4)-c4c(O)cc(O)cc4C(C(=O)O)NC3=O)OC(CO)C(O)C2O)CC(C)(NCc2ccc(-c3ccc(Cl)cc3)cc2)C1O (stereo not drawn) [Compound 234] | 2 | 2 | 2
COc1ccc(CCC(=O)NC2C(=O)NC(CC(N)=O)C(=O)NC3C(=O)NC4C(=O)NC(C(=O)NC(C(=O)O)c5cc(O)cc(O)c5-c5cc4ccc5O)C(O)c4ccc(c(Cl)c4)Oc4cc3cc(c4OC3OC(CO)C(O)C(O)C3OC3CC(C)(NCc4ccc(-c5ccc(Cl)cc5)cc4)C(O)C(C)O3)Oc3ccc(cc3Cl)C2O)cc1OC (stereo not drawn) [Compound 245] | 2 | 2 | 2
COc1ccc(C(=O)NC2C(=O)NC(CC(N)=O)C(=O)NC3C(=O)NC4C(=O)NC(C(=O)NC(C(=O)O)c5cc(O)cc(O)c5-c5cc4ccc5O)C(O)c4ccc(c(Cl)c4)Oc4cc3cc(c4OC3OC(CO)C(O)C(O)C3OC3CC(C)(NCc4ccc(-c5ccc(Cl)cc5)cc4)C(O)C(C)O3)Oc3ccc(cc3Cl)C2O)cc1OC (stereo not drawn) [Compound 253] | 2 | 2 | 2
CCOCCC(=O)N[C@H]1C(=O)N[C@@H](CC(N)=O)C(=O)N[C@H]2C(=O)N[C@H]3C(=O)N[C@H](C(=O)N[C@@H](C(=O)O)c4cc(O)cc(O)c4-c4cc3ccc4O)[C@H](O)c3ccc(c(Cl)c3)Oc3cc2cc(c3O[C@@H]2O[C@H](CO)[C@@H](O)[C@H](O)[C@H]2O[C@@H]2C[C@@](C)(NCc3ccc(-c4ccc(Cl)cc4)cc3)[C@@H](O)[C@@H](C)O2)Oc2ccc(cc2Cl)[C@H]1O [Compound 258] | 2 | 2 | 2
CC1OC(OC2C(Oc3c4cc5cc3Oc3ccc(cc3Cl)C(O)C3NC(=O)C(NC(=O)C5NC(=O)C(CC(N)=O)NC(=O)C(NC(=O)c5cccc(O)c5)C(O)c5ccc(c(Cl)c5)O4)c4ccc(O)c(c4)-c4c(O)cc(O)cc4C(C(=O)O)NC3=O)OC(CO)C(O)C2O)CC(C)(NCc2ccc(-c3ccc(Cl)cc3)cc2)C1O (stereo not drawn) [Compound 261] | 2 | 2 | 2
CC(O)CC(=O)N[C@H]1C(=O)N[C@@H](CC(N)=O)C(=O)N[C@H]2C(=O)N[C@H]3C(=O)N[C@H](C(=O)N[C@@H](C(=O)O)c4cc(O)cc(O)c4-c4cc3ccc4O)[C@H](O)c3ccc(c(Cl)c3)Oc3cc2cc(c3O[C@@H]2O[C@H](CO)[C@@H](O)[C@H](O)[C@H]2O[C@@H]2C[C@@](C)(NCc3ccc(-c4ccc(Cl)cc4)cc3)[C@@H](O)[C@@H](C)O2)Oc2ccc(cc2Cl)[C@H]1O (stereo partly drawn) [Compound 262] | 2 | 2 | 2
CC1OC(OC2C(Oc3c4cc5cc3Oc3ccc(cc3Cl)C(O)C3NC(=O)C(NC(=O)C5NC(=O)C(CC(N)=O)NC(=O)C(NC(=O)c5ccc(S(C)(=O)=O)cc5)C(O)c5ccc(c(Cl)c5)O4)c4ccc(O)c(c4)-c4c(O)cc(O)cc4C(C(=O)O)NC3=O)OC(CO)C(O)C2O)CC(C)(NCc2ccc(-c3ccc(Cl)cc3)cc2)C1O (stereo not drawn) [Compound 264] | 0 | 2 | 2
CC(=O)Oc1ccc(C(=O)NC2C(=O)NC(CC(N)=O)C(=O)NC3C(=O)NC4C(=O)NC(C(=O)NC(C(=O)O)c5cc(O)cc(O)c5-c5cc4ccc5O)C(O)c4ccc(c(Cl)c4)Oc4cc3cc(c4OC3OC(CO)C(O)C(O)C3OC3CC(C)(NCc4ccc(-c5ccc(Cl)cc5)cc4)C(O)C(C)O3)Oc3ccc(cc3Cl)C2O)cc1 (stereo not drawn) [Compound 266] | 2 | 2 | 2
CC1OC(OC2C(Oc3c4cc5cc3Oc3ccc(cc3Cl)C(O)C3NC(=O)C(NC(=O)C5NC(=O)C(CC(N)=O)NC(=O)C(NC(=O)c5ccc(S(N)(=O)=O)cc5)C(O)c5ccc(c(Cl)c5)O4)c4ccc(O)c(c4)-c4c(O)cc(O)cc4C(C(=O)O)NC3=O)OC(CO)C(O)C2O)CC(C)(NCc2ccc(-c3ccc(Cl)cc3)cc2)C1O (stereo not drawn) [Compound 269] | 2 | 2 | 2
